Results from ChEMBL document CHEMBL4507293 (2021).

Legend:
[1] = target: Ribosomal protein S6 kinase alpha-2 (Homo sapiens) (UniProt Q15349); conditions: Compound concentration 100.0 nM
[2] = target: Serine/threonine-protein kinase 38 (Homo sapiens) (UniProt Q15208); conditions: Compound concentration 100.0 nM
[3] = target: Muscarinic acetylcholine receptor M3 (Homo sapiens) (UniProt P20309); conditions: Compound concentration 10.0 uM
[4] = system: Epidermal growth factor receptor (Homo sapiens), P00533 [G719S]; conditions: Compound concentration 100.0 nM
[5] = target: BMP-2-inducible protein kinase (Homo sapiens) (UniProt Q9NSY1); conditions: Compound concentration 100.0 nM
[6] = target: Cyclin-dependent kinase 9 (Homo sapiens) (UniProt P50750); conditions: Compound concentration 100.0 nM
[7] = target: Vascular endothelial growth factor receptor 2 (Homo sapiens) (UniProt P35968); conditions: Compound concentration 100.0 nM
[8] = target: Serine/threonine-protein kinase PAK 4 (Homo sapiens) (UniProt O96013); conditions: Compound concentration 100.0 nM
[9] = system: Tyrosine-protein kinase ABL1 (Homo sapiens), P00519 [M351T]; conditions: Compound concentration 100.0 nM
[10] = target: Serine/threonine-protein kinase PRP4 homolog (Homo sapiens) (UniProt Q13523); conditions: Compound concentration 100.0 nM
[11] = system: Epidermal growth factor receptor (Homo sapiens), P00533 [L858R,T790M]; conditions: Compound concentration 100.0 nM
[12] = target: Serine/threonine-protein kinase SBK1 (Homo sapiens) (UniProt Q52WX2); conditions: Compound concentration 100.0 nM
[13] = target: Tyrosine-protein kinase receptor UFO (Homo sapiens) (UniProt P30530); conditions: Compound concentration 100.0 nM
[14] = target: cAMP-dependent protein kinase catalytic subunit PRKX (Homo sapiens) (UniProt P51817); conditions: Compound concentration 100.0 nM
[15] = target: Serine/threonine-protein kinase WNK2 (Homo sapiens) (UniProt Q9Y3S1); conditions: Compound concentration 100.0 nM
[16] = target: Serine/threonine-protein kinase ICK (Homo sapiens) (UniProt Q9UPZ9); conditions: Compound concentration 100.0 nM
[17] = target: Macrophage colony-stimulating factor 1 receptor (Homo sapiens) (UniProt P07333); conditions: Compound concentration 100.0 nM
[18] = target: Leukocyte tyrosine kinase receptor (Homo sapiens) (UniProt P29376); conditions: Compound concentration 100.0 nM
[19] = target: Cyclin-dependent kinase 4 (Homo sapiens) (UniProt P11802); conditions: Compound concentration 100.0 nM
[20] = target: Calcium-dependent protein kinase 1 (Plasmodium falciparum) (UniProt P62344); conditions: Compound concentration 100.0 nM
[21] = target: Aurora kinase A (Homo sapiens) (UniProt O14965); conditions: Compound concentration 100.0 nM
[22] = system: Mast/stem cell growth factor receptor Kit (Homo sapiens), P10721 [D816H]; conditions: Compound concentration 100.0 nM
[23] = target: Calcium/calmodulin-dependent protein kinase type II subunit gamma (Homo sapiens) (UniProt Q13555); conditions: Compound concentration 100.0 nM
[24] = target: Serine/threonine-protein kinase LATS2 (Homo sapiens) (UniProt Q9NRM7); conditions: Compound concentration 100.0 nM
[25] = target: Tyrosine-protein kinase ZAP-70 (Homo sapiens) (UniProt P43403); conditions: Compound concentration 100.0 nM
[26] = target: Serine/threonine-protein kinase RIO2 (Homo sapiens) (UniProt Q9BVS4); conditions: Compound concentration 100.0 nM
[27] = target: Cyclin-G-associated kinase (Homo sapiens) (UniProt O14976); conditions: Compound concentration 100.0 nM
[28] = target: Non-receptor tyrosine-protein kinase TNK1 (Homo sapiens) (UniProt Q13470); conditions: Compound concentration 100.0 nM
[29] = target: 5'-AMP-activated protein kinase catalytic subunit alpha-2 (Homo sapiens) (UniProt P54646); conditions: Compound concentration 100.0 nM
[30] = target: D(4) dopamine receptor (Homo sapiens) (UniProt P21917); conditions: Compound concentration 10.0 uM
[31] = target: Ephrin type-A receptor 5 (Homo sapiens) (UniProt P54756); conditions: Compound concentration 100.0 nM
[32] = target: Serine/threonine-protein kinase WNK1 (Homo sapiens) (UniProt Q9H4A3); conditions: Compound concentration 100.0 nM
[33] = target: Ribosomal protein S6 kinase alpha-5 (Homo sapiens) (UniProt O75582); conditions: Compound concentration 100.0 nM
[34] = target: Ephrin type-B receptor 6 (Homo sapiens) (UniProt O15197); conditions: Compound concentration 100.0 nM
[35] = system: Tyrosine-protein kinase ABL1 (Homo sapiens), P00519 [F317L]; conditions: Compound concentration 100.0 nM
[36] = target: Membrane-associated tyrosine- and threonine-specific cdc2-inhibitory kinase (Homo sapiens) (UniProt Q99640); conditions: Compound concentration 100.0 nM
[37] = target: Serine/threonine-protein kinase 3 (Homo sapiens) (UniProt Q13188); conditions: Compound concentration 100.0 nM
[38] = target: Dual specificity tyrosine-phosphorylation-regulated kinase 1B (Homo sapiens) (UniProt Q9Y463); conditions: Compound concentration 100.0 nM
[39] = target: Rho-associated protein kinase 1 (Homo sapiens) (UniProt Q13464); conditions: Compound concentration 100.0 nM
[40] = target: Serine/threonine-protein kinase ULK2 (Homo sapiens) (UniProt Q8IYT8); conditions: Compound concentration 100.0 nM
[41] = target: MAP/microtubule affinity-regulating kinase 3 (Homo sapiens) (UniProt P27448); conditions: Compound concentration 100.0 nM
[42] = target: Mu-type opioid receptor (Homo sapiens) (UniProt P35372); conditions: Compound concentration 10.0 uM
[43] = target: Serine/threonine-protein kinase 36 (Homo sapiens) (UniProt Q9NRP7); conditions: Compound concentration 100.0 nM
[44] = target: 5-hydroxytryptamine receptor 6 (Homo sapiens) (UniProt P50406); conditions: Compound concentration 10.0 uM
[45] = target: Serine/threonine-protein kinase 32C (Homo sapiens) (UniProt Q86UX6); conditions: Compound concentration 100.0 nM

Chain of 5-hydroxytryptamine receptor 6 (Homo sapiens) (P50406 whole entry): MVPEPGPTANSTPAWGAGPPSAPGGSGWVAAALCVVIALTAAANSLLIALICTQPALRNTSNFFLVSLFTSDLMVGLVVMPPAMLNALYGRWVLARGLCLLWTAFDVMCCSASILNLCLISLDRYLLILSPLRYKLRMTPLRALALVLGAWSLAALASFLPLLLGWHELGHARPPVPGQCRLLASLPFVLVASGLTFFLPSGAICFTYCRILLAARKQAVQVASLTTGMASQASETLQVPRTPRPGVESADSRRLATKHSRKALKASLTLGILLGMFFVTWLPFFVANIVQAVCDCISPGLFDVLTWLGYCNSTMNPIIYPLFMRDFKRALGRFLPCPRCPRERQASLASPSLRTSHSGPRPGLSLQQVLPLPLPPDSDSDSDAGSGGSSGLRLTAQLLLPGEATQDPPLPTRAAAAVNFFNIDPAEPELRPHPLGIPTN
Chain of Serine/threonine-protein kinase 36 (Homo sapiens) (Q9NRP7 whole entry): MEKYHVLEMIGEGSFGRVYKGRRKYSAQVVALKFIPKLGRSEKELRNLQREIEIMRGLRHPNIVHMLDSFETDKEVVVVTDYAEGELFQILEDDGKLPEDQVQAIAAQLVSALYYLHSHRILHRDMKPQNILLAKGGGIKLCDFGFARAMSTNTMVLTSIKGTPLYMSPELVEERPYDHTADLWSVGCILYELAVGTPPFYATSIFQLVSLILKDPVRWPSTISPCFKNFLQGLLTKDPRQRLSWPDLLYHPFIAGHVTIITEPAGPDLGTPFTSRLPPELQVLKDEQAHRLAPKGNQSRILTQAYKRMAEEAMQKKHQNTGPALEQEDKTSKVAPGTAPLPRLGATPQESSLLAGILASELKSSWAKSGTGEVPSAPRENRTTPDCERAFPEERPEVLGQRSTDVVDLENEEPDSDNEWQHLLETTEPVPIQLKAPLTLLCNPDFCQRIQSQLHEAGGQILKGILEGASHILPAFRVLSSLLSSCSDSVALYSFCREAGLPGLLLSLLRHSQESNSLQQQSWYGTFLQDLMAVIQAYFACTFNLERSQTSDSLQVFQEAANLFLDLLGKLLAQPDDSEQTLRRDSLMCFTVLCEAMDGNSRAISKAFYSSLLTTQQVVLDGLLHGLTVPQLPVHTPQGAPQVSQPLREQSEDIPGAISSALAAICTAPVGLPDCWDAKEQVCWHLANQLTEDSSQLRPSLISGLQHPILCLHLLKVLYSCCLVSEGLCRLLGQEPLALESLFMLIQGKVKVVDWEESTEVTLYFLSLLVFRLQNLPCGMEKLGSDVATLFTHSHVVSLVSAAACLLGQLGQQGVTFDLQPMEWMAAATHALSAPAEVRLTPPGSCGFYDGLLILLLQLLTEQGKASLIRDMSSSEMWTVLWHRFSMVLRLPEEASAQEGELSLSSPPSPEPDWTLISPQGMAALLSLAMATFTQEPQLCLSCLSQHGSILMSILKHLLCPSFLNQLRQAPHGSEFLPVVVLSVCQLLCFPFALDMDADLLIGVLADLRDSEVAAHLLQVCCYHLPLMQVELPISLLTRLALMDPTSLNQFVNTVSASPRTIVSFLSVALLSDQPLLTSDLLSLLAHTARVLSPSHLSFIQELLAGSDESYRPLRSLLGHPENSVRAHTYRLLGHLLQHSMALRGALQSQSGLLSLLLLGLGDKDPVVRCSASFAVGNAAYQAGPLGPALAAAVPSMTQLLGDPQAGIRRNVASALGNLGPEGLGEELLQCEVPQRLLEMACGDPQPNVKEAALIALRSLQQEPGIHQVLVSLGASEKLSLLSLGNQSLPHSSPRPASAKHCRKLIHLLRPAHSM
Chain of Vascular endothelial growth factor receptor 2 (Homo sapiens) (P35968 whole entry): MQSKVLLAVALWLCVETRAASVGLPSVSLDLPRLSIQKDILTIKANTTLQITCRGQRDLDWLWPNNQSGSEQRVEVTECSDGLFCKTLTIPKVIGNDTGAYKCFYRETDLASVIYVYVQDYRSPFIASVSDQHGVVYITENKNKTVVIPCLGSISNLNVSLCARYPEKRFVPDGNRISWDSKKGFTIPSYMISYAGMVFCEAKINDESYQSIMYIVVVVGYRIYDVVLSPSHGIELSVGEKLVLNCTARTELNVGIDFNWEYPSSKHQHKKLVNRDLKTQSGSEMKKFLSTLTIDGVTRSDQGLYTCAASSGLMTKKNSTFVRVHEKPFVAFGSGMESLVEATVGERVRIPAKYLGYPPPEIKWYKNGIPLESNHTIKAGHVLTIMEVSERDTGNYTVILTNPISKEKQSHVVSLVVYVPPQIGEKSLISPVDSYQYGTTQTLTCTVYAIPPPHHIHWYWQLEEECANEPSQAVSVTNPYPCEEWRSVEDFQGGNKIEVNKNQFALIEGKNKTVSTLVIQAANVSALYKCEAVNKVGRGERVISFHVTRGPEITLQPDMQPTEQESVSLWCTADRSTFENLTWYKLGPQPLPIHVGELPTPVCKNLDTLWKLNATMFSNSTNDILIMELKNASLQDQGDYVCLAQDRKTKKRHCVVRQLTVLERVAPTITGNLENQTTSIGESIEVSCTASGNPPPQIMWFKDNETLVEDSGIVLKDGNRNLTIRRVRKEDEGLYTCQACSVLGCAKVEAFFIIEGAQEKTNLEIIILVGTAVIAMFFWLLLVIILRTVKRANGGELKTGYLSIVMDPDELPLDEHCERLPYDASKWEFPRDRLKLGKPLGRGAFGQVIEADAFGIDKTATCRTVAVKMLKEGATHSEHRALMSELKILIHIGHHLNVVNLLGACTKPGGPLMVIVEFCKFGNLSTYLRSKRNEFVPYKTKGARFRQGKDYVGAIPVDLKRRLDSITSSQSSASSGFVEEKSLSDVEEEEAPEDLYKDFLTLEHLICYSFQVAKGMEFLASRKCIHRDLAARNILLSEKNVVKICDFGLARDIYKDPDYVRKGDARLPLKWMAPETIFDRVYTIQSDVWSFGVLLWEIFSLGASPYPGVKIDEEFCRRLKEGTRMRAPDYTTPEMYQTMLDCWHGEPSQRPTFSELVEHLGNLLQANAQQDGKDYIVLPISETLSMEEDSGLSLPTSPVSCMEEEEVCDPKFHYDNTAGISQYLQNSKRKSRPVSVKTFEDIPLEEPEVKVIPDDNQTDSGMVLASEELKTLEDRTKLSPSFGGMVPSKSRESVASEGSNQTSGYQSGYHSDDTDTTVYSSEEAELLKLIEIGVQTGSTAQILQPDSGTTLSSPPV
Chain of Serine/threonine-protein kinase ICK (Homo sapiens) (Q9UPZ9 whole entry): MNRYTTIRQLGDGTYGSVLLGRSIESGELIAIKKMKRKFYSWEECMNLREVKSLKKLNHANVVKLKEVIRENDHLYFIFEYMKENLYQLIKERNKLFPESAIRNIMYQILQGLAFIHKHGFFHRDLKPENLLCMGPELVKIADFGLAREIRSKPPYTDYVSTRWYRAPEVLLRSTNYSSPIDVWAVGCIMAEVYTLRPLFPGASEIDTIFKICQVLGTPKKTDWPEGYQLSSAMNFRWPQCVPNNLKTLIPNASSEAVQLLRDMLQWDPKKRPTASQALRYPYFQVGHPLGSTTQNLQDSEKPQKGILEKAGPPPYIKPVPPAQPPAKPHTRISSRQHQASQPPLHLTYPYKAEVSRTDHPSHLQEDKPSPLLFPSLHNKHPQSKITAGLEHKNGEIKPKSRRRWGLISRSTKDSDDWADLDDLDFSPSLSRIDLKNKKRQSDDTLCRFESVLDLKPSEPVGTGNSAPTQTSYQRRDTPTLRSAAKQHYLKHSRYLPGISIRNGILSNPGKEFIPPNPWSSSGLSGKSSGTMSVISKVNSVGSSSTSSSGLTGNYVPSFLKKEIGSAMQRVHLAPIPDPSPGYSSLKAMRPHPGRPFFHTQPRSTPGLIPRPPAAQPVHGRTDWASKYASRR
Chain of Leukocyte tyrosine kinase receptor (Homo sapiens) (P29376 whole entry): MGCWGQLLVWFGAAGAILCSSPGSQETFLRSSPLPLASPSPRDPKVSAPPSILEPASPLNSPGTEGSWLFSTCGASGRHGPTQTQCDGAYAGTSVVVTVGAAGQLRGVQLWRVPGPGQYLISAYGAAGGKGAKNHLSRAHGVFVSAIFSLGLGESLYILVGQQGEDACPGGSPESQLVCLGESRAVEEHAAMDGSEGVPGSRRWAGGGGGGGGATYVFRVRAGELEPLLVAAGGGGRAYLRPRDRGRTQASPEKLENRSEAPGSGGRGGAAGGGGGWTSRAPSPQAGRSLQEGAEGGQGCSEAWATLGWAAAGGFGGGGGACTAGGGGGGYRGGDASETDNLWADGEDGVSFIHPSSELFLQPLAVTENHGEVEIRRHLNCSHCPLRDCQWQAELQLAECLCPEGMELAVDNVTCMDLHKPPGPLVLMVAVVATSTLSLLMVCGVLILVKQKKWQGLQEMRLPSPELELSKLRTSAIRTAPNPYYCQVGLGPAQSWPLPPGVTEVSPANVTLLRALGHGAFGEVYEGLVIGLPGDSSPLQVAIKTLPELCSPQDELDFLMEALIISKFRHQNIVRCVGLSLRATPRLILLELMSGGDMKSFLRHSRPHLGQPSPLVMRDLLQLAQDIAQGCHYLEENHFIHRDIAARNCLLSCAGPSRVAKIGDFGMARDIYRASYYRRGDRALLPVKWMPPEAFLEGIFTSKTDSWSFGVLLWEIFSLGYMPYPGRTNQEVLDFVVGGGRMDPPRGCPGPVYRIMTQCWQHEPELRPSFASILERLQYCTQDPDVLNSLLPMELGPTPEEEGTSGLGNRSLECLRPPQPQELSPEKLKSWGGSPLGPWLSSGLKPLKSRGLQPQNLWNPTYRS
Chain of Serine/threonine-protein kinase 3 (Homo sapiens) (Q13188 whole entry): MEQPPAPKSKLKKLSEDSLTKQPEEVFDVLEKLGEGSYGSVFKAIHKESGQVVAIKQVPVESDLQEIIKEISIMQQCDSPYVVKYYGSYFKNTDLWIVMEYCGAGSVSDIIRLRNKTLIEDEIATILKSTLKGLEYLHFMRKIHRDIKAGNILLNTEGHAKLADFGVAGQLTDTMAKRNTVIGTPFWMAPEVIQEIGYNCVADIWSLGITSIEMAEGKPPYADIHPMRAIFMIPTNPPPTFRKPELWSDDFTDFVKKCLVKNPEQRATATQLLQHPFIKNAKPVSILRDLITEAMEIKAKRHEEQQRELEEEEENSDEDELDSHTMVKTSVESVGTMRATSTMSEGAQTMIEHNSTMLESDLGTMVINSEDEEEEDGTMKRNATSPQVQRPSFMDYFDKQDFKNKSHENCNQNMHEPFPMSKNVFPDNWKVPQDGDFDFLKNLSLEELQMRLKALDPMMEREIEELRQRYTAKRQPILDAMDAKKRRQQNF

COCCOc1nc(-c2ccc(Cl)nc2)nc2c1CN(C(=O)c1ncn3ccccc13)CC2 [THPP-1]
inactive: residual activity [1] 100% | residual activity [2] 100% | inhibition [3] 3.95% | residual activity [4] 97% | residual activity [5] 90% | residual activity [6] 100% | residual activity [7] 100% | residual activity [8] 100% | residual activity [9] 100% | residual activity [10] 100% | residual activity [11] 100% | residual activity [12] 100% | residual activity [13] 90% | residual activity [14] 100% | residual activity [15] 100% | residual activity [16] 100% | residual activity [17] 100% | residual activity [18] 100% | residual activity [19] 96% | residual activity [20] 100% | residual activity [21] 81% | residual activity [22] 68% | residual activity [23] 100% | residual activity [24] 68% | residual activity [25] 95% | residual activity [26] 100% | residual activity [27] 100% | residual activity [28] 100% | residual activity [29] 100% | inhibition [30] 15.7% | residual activity [31] 99% | residual activity [32] 100% | residual activity [33] 100% | residual activity [34] 78% | residual activity [35] 100% | residual activity [36] 100% | residual activity [37] 100% | residual activity [38] 83% | residual activity [39] 93% | residual activity [40] 100% | residual activity [41] 100% | inhibition [42] -0.32% | residual activity [43] 79% | inhibition [44] -4.55% | residual activity [45] 100%

CC(C)CC(=O)N1CCc2nc(-c3ccc(Br)cc3)nc(N(C)Cc3ccccc3)c2C1 [THPP-1-NC]
inactive: residual activity [1] 100% | residual activity [2] 100% | inhibition [3] 13.5% | residual activity [4] 100% | residual activity [5] 99% | residual activity [6] 100% | residual activity [7] 100% | residual activity [8] 100% | residual activity [9] 100% | residual activity [10] 100% | residual activity [11] 100% | residual activity [12] 100% | residual activity [13] 63% | residual activity [14] 100% | residual activity [15] 100% | residual activity [16] 100% | residual activity [17] 100% | residual activity [18] 91% | residual activity [19] 85% | residual activity [20] 100% | residual activity [21] 72% | residual activity [22] 71% | residual activity [23] 100% | residual activity [24] 94% | residual activity [25] 91% | residual activity [26] 100% | residual activity [27] 100% | residual activity [28] 100% | residual activity [29] 100% | inhibition [30] 7.93% | residual activity [31] 89% | residual activity [32] 100% | residual activity [33] 96% | residual activity [34] 91% | residual activity [35] 100% | residual activity [36] 92% | residual activity [37] 100% | residual activity [38] 77% | residual activity [39] 78% | residual activity [40] 89% | residual activity [41] 100% | inhibition [42] -0.75% | residual activity [43] 78% | inhibition [44] 0.81% | residual activity [45] 98%
